Assay results reported in patent US5041438A, “Method for treating retroviral infections with benzodiazepine compounds” (Hoffmann-La Roche Inc., priority 1989, dated 1991).
Entries after “also recorded” stand apart in the source; their conditions may differ. Read-outs that look alike come from different tables or passages of the source.

Tests used:
HIV/HTLV III, RF strain = test: p24 viral antigen capture assay (ELISA) in C8166 CD4+ T-cells; assay type: cell-based; settings: for anti-viral activity in p24 viral antigen capture assay: result in words
Protocol: Compound I was tested for anti-viral activity in the p24 viral antigen capture assay.
The Enzyme Linked Immuno-absorbant Assay (ELISA) was used to test Compound I for anti-HIV activity by measuring virus replication in CD4^+ T-lymphocytes by detecting viral p24 antigen released into the tissue culture supernatant of infected cells.
High titer virus stocks [HIV/HTLV III, RF strain]were grown in H9 cells in RPMI-1640 (Flow Laboratories) supplemented with 10% fetal calf serum, penicillin (100 IU/ml) and streptomycin (100 μg/ml). Cell debris was removed by low speed centrifugation and the supernatant stored at -70° C. until required. The host cell line used in the anti-viral assays was the C8166 CD4^+ T-cell line which is particularly susceptible to infection with HIV. Cells were incubated with 10 TCID50, HIV/HTLV III (RF) at 37° C. for 90 minutes and then washed three times with PBS. Cell aliquots (2×10^5) were resuspended in 1.5 ml growth medium in 6 ml tubes and appropriate amounts of Compound I added and incubated at 37° C. At 72 hours post-infection, the supernatants from the cell cultures were assayed for p24 antigen. The antigen capture ELISA used was purchased from Coulter (Luton, UK). The assays were carried out on supernatants taken from infected cell cultures using the procedure described by the manufacturer. In each assay a positive control was included, together with a supernatant control taken from uninfected cells. The plates were read using the appropriate spectrophotometric detection system. Results of two separate assays are:
ID50 is defined as the dose of compound required to inhibit viral replication by 50 percent. […] Approximately 0.1 μM and 6 μM of Compound I yields 50 percent inhibition of viral replication. 0.003 μM AZT provided 50 percent inhibition of viral replication in one test conducted. ddC provided 50 percent inhibition at a concentration of 0.01 μM in one test.

TAT = test: anti-TAT assay: SeAP reporter expression under HIV-LTR in COS cells co-transfected with TAT; assay type: cell-based; settings: 1, 10 and 100 μM, added 24 h post transfection, assayed 48 h later, FIG. 1
Description: (§1) FIG. 1 Illustrates anti-TAT activity of Compound I. COS cells are co-transfected with TAT and Secreted Alkaline Phosphatase (SeAP) genes. The SeAP gene, under the control of the HIV-LTR (responsive to TAT activation) or the RSV-LTR (unresponsive to TAT action) serves as a monitor or reporter gene. SeAP activity in the HIV-LTR combination but not the RSV-LTR combination serves as a measure of TAT activity. Cells containing the RSV-LTR co-transfected gene combination serve as an indicator of the non-specific toxicity of added test compounds. The black bars represent the percent inhibition of SeAP activity by Compound I when the SeAP gene is under the control of HIV-LTR. The hatched bars represent the effect of Compound I on SeAP activity when the SeAP gene is regulated by RSV-LTR. […] The figure includes results from three separate assays.
(§2) Compound I was tested for anti-TAT activity in an anti-TAT assay described in copending patent application, now U.S. Ser. No. 07/428,555 filed Oct. 10, 1989, filed on the same day as the instant application and hereby incorporated by reference. […] The anti-TAT activity is measured by the percent inhibition of SeAP gene expression under the control of HIV-LTR.

COS cells = test: parallel cytotoxicity assay: SeAP expression under RSV-LTR in COS cells; assay type: cell-based; settings: RSV-LTR not responsive to TAT, FIG. 1
Description: as §1, §2

HIV-1 NIT strain = test: inhibition of HIV-cytopathic effect and of viral RNA and antigen production in infected CD4+ CEM cells; assay type: cell-based; settings: MOI=1, 3 and 6 days, FIGS. 2 and 3
Protocol: High titer virus stocks (HIV-1 NIT strain) were grown in CD4^+ CR1O cells in RMPI-1640 media (Gibco Laboratories) supplemented with 10% fetal calf serum and 0.1 mg/ml Gentamicin. The collected media were filtered through a 0.8 Micron filter and virus isolates were concentrated 100 fold and stored at -80° C.
CD4^+ CEM cells, propagated in the same medium, were incubated for 60 minutes at 37° C. with diluted stock virus at MOI=1. Cells were washed three times with phosphate buffered saline and resuspended in the medium at 2×10^5 cells/ml. Various quantities of Compound I were added. Three days after infection, numbers of live cells were counted by trypan blue exclusion [Mitsuya, et al. Proc. Natl. Acad. Sci. 83:1911 (1986)]. […] Cells stained with the fluorescent antibody were counted using a fluorescence microscope and the results were expressed as percentage of the total number of cells counted [(Hedenskog et al., J. Med. Virol. 1:9325 (1986)].
The viral RNA in infected cells was quantitized with an RNA-RNA hybridization/reversible target capture procedure [Gillespie et al. Molecular and Cellular Probes, 2:73 (1989)]. […] 2×10^5 live cells, determined by trypan blue exclusion, were used in each assay.
For cytotoxicity testing, uninfected CEM cells were treated with Compound I at similar concentrations and toxicity of the compound was measured by the live-cell count. […]

HIV = settings: in most patients; cited from earlier work

SMILES | IC50 (HIV/HTLV III, RF strain; Human immunodeficiency virus 1, p24 antigen, C8166 cells, 72 h post-infection, first of two separate assays, read-out: ID50 (dose of compound required to inhibit viral replication by 50 percent)) [nM] | anti-viral activity in p24 viral antigen capture assay (HIV/HTLV III, RF strain) | IC50 (HIV/HTLV III, RF strain; Human immunodeficiency virus 1, C8166, 72 h, read-out: ID50 (dose of compound required to inhibit viral replication by 50 percent), p24 antigen, C8166 cells, 72 h post-infection, first of two separate assays) [nM] | IC50 (HIV/HTLV III, RF strain; Human immunodeficiency virus 1, C8166, 72 h, read-out: ID50 (dose of compound required to inhibit viral replication by 50 percent), p24 antigen, C8166 cells, 72 h post-infection, second of two separate assays) [nM] | anti-TAT activity (inhibition of SeAP gene expression under control of HIV-LTR) (TAT) | nonspecific cytotoxicity (SeAP gene expression under control of RSV-LTR) (COS cells) | anti-HIV activity (HIV-cytopathic effect, viral RNA and antigen production) (HIV-1 NIT strain) | IC50 (HIV/HTLV III, RF strain; Human immunodeficiency virus 1, p24 antigen, C8166 cells, 72 h post-infection, second of two separate assays, read-out: ID50 (dose of compound required to inhibit viral replication by 50 percent)) [nM] | virustatic range (body weight dose) (HIV)
Cc1cn([C@H]2C[C@H](N=[N+]=[N-])[C@@H](CO)O2)c(=O)[nH]c1=O [AZT] | 3 | active in the p24 assay; also recorded: exhibits anti-viral activity | – | – | – | – | – | – | –
O=C1CN=C(c2ccc[nH]2)c2cc(Cl)ccc2N1 [Compound I, 7-chloro-5-(2-pyrryl)-3H-1,4-benzodiazepin-2(1H)-one] | – | positive results; also recorded: exhibits anti-viral activity | 100 | 6000 | specifically inhibits TAT action; also recorded: exhibits anti-TAT activity; also recorded: specific inhibitor of TAT | does not exhibit nonspecific toxicity; also recorded: does not exhibit nonspecific cytotoxicity | inhibition of HIV-cytopathic effect and viral RNA and antigen production | – | –
Nc1ccn([C@H]2CC[C@@H](CO)O2)c(=O)n1 [ddC] | – | active in the p24 assay | – | – | – | – | – | 10 | 0.005-0.25 mg/kg body weight
